Results taken from the supplement of paper PMC10307832.

How the values were obtained:
Experiment in all cases: relative viability (nuclei count vs DMSO), 5 days (fraction); higher = more cells survive
NCI-H1793 = test system: NCI-H1793
In short: (§1)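 Relative viability was taken as the ratio of nuclei in treated wells to nuclei in vehicle wells. Lung cancer cell lines in 1536-well plates received compounds by pin tool one day after seeding, either one drug alone or a fixed anchor-drug dose plus five library-drug doses (not always all listed) in √10 steps. Nuclei were counted on 4× images after 5 days of treatment, and values are medians of duplicate plates.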

NCI-H2405 = test system: NCI-H2405
In short: as §1

NCI-H2023 = test system: NCI-H2023
In short: as §1

NCI-H647 = test system: NCI-H647
In short: as §1

NCI-H1563 = test system: NCI-H1563
In short: as §1

NCI-H520 = test system: NCI-H520
In short: as §1

PC-14 = test system: PC-14
In short: as §1

NCI-H1734 = test system: NCI-H1734
In short: as §1

COR-L23 = test system: COR-L23
In short: as §1

NCI-H3122 = test system: NCI-H3122
In short: as §1

EPLC-272H = test system: EPLC-272H
In short: as §1

RERF-LC-KJ = test system: RERF-LC-KJ
In short: as §1

ABC-1 = test system: ABC-1
In short: as §1

HCC-44 = test system: HCC-44
In short: as §1

NCI-H1993 = test system: NCI-H1993
In short: as §1

EKVX = test system: EKVX
In short: as §1

LOU-NH91 = test system: LOU-NH91
In short: as §1

NCI-H2347 = test system: NCI-H2347
In short: as §1

201T = test system: 201T
In short: as §1

NCI-H2085 = test system: NCI-H2085
In short: as §1

NCI-H441 = test system: NCI-H441
In short: as §1

Clc1ccc(Nc2nnc(Cc3ccncc3)c3ccccc23)cc1 [Vatalanib] + C[C@]1(O)C[C@@H](c2nc(-c3ccc4ccc(-c5ccccc5)nc4c3)c3c(N)nccn32)C1 [Linsitinib] (partner 1 µM)
relative viability (NCI-H1793; first compound 0.04 µM): 0.857
relative viability (NCI-H1793; first compound 0.1265 µM): 0.693
relative viability (NCI-H1793; first compound 0.4 µM): 0.816
relative viability (NCI-H1793; first compound 1.265 µM): 0.719
relative viability (NCI-H1793; first compound 4 µM): 0.819
relative viability (NCI-H2405; first compound 0.04 µM): 0.951
relative viability (NCI-H2405; first compound 0.1265 µM): 0.901
relative viability (NCI-H2405; first compound 1.265 µM): 0.868
relative viability (NCI-H2405; first compound 4 µM): 0.93
relative viability (NCI-H2023; first compound 0.04 µM): 0.726
relative viability (NCI-H2023; first compound 0.1265 µM): 0.735
relative viability (NCI-H2023; first compound 0.4 µM): 0.815
relative viability (NCI-H2023; first compound 1.265 µM): 0.571
relative viability (NCI-H2023; first compound 4 µM): 0.705
relative viability (NCI-H647; first compound 0.04 µM): 1.02
relative viability (NCI-H647; first compound 0.1265 µM): 1.14
relative viability (NCI-H647; first compound 0.4 µM): 1.2
relative viability (NCI-H647; first compound 1.265 µM): 1.21
relative viability (NCI-H647; first compound 4 µM): 1.09
relative viability (NCI-H1563; first compound 0.04 µM): 1.42
relative viability (NCI-H1563; first compound 0.1265 µM): 1.27
relative viability (NCI-H1563; first compound 0.4 µM): 1.24
relative viability (NCI-H1563; first compound 1.265 µM): 1.12
relative viability (NCI-H1563; first compound 4 µM): 1.2
relative viability (NCI-H520; first compound 0.04 µM): 0.901
relative viability (NCI-H520; first compound 0.1265 µM): 0.888
relative viability (NCI-H520; first compound 0.4 µM): 0.802
relative viability (NCI-H520; first compound 1.265 µM): 0.86
relative viability (NCI-H520; first compound 4 µM): 0.989
relative viability (PC-14; first compound 0.04 µM): 0.955
relative viability (PC-14; first compound 0.1265 µM): 0.905
relative viability (PC-14; first compound 0.4 µM): 1.03
relative viability (PC-14; first compound 1.265 µM): 0.955
relative viability (PC-14; first compound 4 µM): 0.871
relative viability (NCI-H1734; first compound 0.04 µM): 0.971
relative viability (NCI-H1734; first compound 0.1265 µM): 0.866
relative viability (NCI-H1734; first compound 0.4 µM): 1.03
relative viability (NCI-H1734; first compound 1.265 µM): 0.886
relative viability (NCI-H1734; first compound 4 µM): 0.859
relative viability (COR-L23; first compound 0.04 µM): 0.978
relative viability (COR-L23; first compound 0.1265 µM): 0.943
relative viability (COR-L23; first compound 0.4 µM): 1.08
relative viability (COR-L23; first compound 1.265 µM): 0.811
relative viability (COR-L23; first compound 4 µM): 0.922
relative viability (NCI-H3122; first compound 0.04 µM): 1.14
relative viability (NCI-H3122; first compound 0.1265 µM): 0.97
relative viability (NCI-H3122; first compound 0.4 µM): 0.961
relative viability (NCI-H3122; first compound 1.265 µM): 1.02
relative viability (NCI-H3122; first compound 4 µM): 1.02
relative viability (EPLC-272H; first compound 0.04 µM): 1.2
relative viability (EPLC-272H; first compound 0.1265 µM): 1.19
relative viability (EPLC-272H; first compound 0.4 µM): 1.27
relative viability (EPLC-272H; first compound 1.265 µM): 1.18
relative viability (EPLC-272H; first compound 4 µM): 1.31
relative viability (RERF-LC-KJ; first compound 0.04 µM): 0.932
relative viability (RERF-LC-KJ; first compound 0.1265 µM): 0.875
relative viability (RERF-LC-KJ; first compound 0.4 µM): 0.933
relative viability (RERF-LC-KJ; first compound 1.265 µM): 0.762
relative viability (RERF-LC-KJ; first compound 4 µM): 0.812
relative viability (ABC-1; first compound 0.04 µM): 0.89
relative viability (ABC-1; first compound 0.1265 µM): 0.767
relative viability (ABC-1; first compound 0.4 µM): 1.05
relative viability (ABC-1; first compound 1.265 µM): 0.659
relative viability (ABC-1; first compound 4 µM): 0.981
relative viability (HCC-44; first compound 0.04 µM): 0.683
relative viability (HCC-44; first compound 0.1265 µM): 0.643
relative viability (HCC-44; first compound 0.4 µM): 0.676
relative viability (HCC-44; first compound 1.265 µM): 0.636
relative viability (HCC-44; first compound 4 µM): 0.679
relative viability (NCI-H1993; first compound 0.04 µM): 0.699
relative viability (NCI-H1993; first compound 0.1265 µM): 0.754
relative viability (NCI-H1993; first compound 0.4 µM): 0.745
relative viability (NCI-H1993; first compound 1.265 µM): 0.727
relative viability (NCI-H1993; first compound 4 µM): 0.734
relative viability (EKVX; first compound 0.04 µM): 1.03
relative viability (EKVX; first compound 0.1265 µM): 0.89
relative viability (EKVX; first compound 0.4 µM): 0.941
relative viability (EKVX; first compound 1.265 µM): 0.814
relative viability (EKVX; first compound 4 µM): 0.776
relative viability (LOU-NH91; first compound 0.04 µM): 1.02
relative viability (LOU-NH91; first compound 0.1265 µM): 0.921
relative viability (LOU-NH91; first compound 0.4 µM): 0.757
relative viability (LOU-NH91; first compound 1.265 µM): 0.913
relative viability (LOU-NH91; first compound 4 µM): 0.89
relative viability (NCI-H2347; first compound 0.04 µM): 1.01
relative viability (NCI-H2347; first compound 0.1265 µM): 0.908
relative viability (NCI-H2347; first compound 0.4 µM): 0.976
relative viability (NCI-H2347; first compound 1.265 µM): 0.901
relative viability (NCI-H2347; first compound 4 µM): 0.942
relative viability (201T; first compound 0.04 µM): 1.02
relative viability (201T; first compound 0.1265 µM): 1.04
relative viability (201T; first compound 0.4 µM): 1.02
relative viability (201T; first compound 1.265 µM): 0.985
relative viability (201T; first compound 4 µM): 0.949
relative viability (NCI-H2085; first compound 0.04 µM): 0.919
relative viability (NCI-H2085; first compound 0.1265 µM): 0.974
relative viability (NCI-H2085; first compound 0.4 µM): 1.05
relative viability (NCI-H2085; first compound 1.265 µM): 0.846
relative viability (NCI-H2085; first compound 4 µM): 0.886
relative viability (NCI-H441; first compound 0.04 µM): 0.597
relative viability (NCI-H441; first compound 0.1265 µM): 0.515
relative viability (NCI-H441; first compound 0.4 µM): 0.583
relative viability (NCI-H441; first compound 1.265 µM): 0.722
relative viability (NCI-H441; first compound 4 µM): 0.645
